The results in this text go back to publication PMC7894522, “Structure Based Design of Bicyclic Peptide Inhibitors of RbAp48” (Angewandte Chemie (International Ed. in English), 2020).

Test [1] deals with T1, RbAp48 (Homo sapiens, UniProt Q09028). Kind of test: Pull-down with peptides immobilized on DBCO beads from MDA-MB-231 nuclear lysate. The test is classed as binding. On the set-up: RbAp48 was pulled down from nuclear lysate of MDA‐MB‐231 cells; endogenous in cells; host or cells: MDA-MB-231 nuclear lysate. The conditions noted are these: 60 µM probe immobilized on DBCO beads, 1.5 h at 4°C, immunoblot. The method, then: To evaluate whether peptide 33 interacts with RbAp48 in a more complex biological environment we modified the N‐terminus with a linker bearing a terminal azide (47, see Table 1, supplemental Figure 4). The peptides were immobilized on DBCO‐beads via copper‐free click chemistry and exposed to MDA‐MB‐231 nuclear lysate. As a negative control an azide modified scrambled peptide sequence (48) with affinity >10 μM was used.
T1 sequence (Q09028 whole entry): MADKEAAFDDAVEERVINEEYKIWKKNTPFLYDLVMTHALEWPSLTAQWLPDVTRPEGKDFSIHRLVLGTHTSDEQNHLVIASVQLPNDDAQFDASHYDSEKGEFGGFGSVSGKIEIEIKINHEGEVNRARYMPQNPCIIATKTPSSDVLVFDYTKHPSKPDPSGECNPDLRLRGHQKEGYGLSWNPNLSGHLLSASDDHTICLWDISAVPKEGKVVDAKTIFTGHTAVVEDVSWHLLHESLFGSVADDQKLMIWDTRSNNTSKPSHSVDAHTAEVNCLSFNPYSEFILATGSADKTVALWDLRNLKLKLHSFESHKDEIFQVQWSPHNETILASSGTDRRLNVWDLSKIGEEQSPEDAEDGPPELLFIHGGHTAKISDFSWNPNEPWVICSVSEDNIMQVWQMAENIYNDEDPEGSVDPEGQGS
Nuclear lysate of MDA-MB-231 cells was prepared using a Subcellular Protein Fractionation Kit (Thermo Scientific) according to the manufacturer’s instructions. DBCO agarose beads (100 µl) were washed with buffer A ( 50 mM Tris-HCl, 150 mM NaCl, 1 mM DTT, 1% (v/v) Triton X -100, pH 7.4, cOmplete™ EDTA-free Protease Inhibitor Cocktail ) three times. The beads were incubated overnight at 4°C in a solution containing either 47, 48 or no probe (500 µl containing 60 µM probe). After immobilization, the beads were washed again with buffer A three times followed by incubation with the nuclear lysate (500 µl) and incubated for 1.5 h at 4°C. After incubat ion beads were washe d with buffer B (50 mM Tris-HCl, 500 mM NaCl, 1 mM DTT, 1% (v/v) Triton X -100, pH 7.4, cOmplete™ EDTA - free Protease Inhibitor Cocktail ) three times. Protein was eluted by adding SDS sample buffer and loaded the mixture directly on SDS -page gel for analysis. […]
On the technique in general: A western blot detects proteins with antibodies after separation by electrophoresis.

The target in test [2] is T1, RbAp48. In words: Competitive fluorescence polarization (FP) assay using complex of peptide 1 and RbAp48. On the set-up: Full length RbAp48 was cloned; His tag followed by 3C cleavage site (N, cleaved yes); made in house; host or cells: Sf9 insect cells. In kind it is binding. Put shortly:
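Sf9-expressed full-length RbAp48 (tag cleaved), 15 nM, displaced from 1 nM fluorescent peptide tracer in 20 mM Tris-HCl pH 7.5, 150 mM NaCl, 0.01% Tween-20. Read by FP (ex 485/em 535 nm) after 30 min at room temperature.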
(In general: In fluorescence polarisation assays a small probe gives low polarisation when free and higher when bound to something large.)

The test system of the next test is p53. In words: p53 expression level assay (western blot). The conditions noted are these: U2OS cells, 10 µM, 24 h, p53 vs alpha tubulin, two biological replicates. In kind it is cell-based. From the text:
Encouraged by the promising results from the pulldown experiment, and in order to get insight into bioactivity and possible mode of action, we analyzed peptide 33 in a morphological cell painting assay. The cell painting assay is a target agnostic assay which determines a cells morphological profile after treatment with a compound of interest and compares it to the profiles of a set of reference compounds. ^[22] By identifying reference compounds with a similar profile a hypothesis of the compounds mode of action can be generated based on their annotated targets. ^[23] U2OS cells were treated with our compound and 579 parameters were analyzed. […] We therefore synthesized a variant modified with an N‐terminal TAT sequence to enhance its permeability (compound 49, see Table 1 and Supplemental Figure 4). ^[24] […] Applying compound 49 to the cell painting assay led to an induction of 5.9 % and the corresponding profile was compared to the set of 3000 reference compounds. […] To validate this hypothesis, we exposed U2OS cells to compound 49 and evaluated the levels of p53 by Western blot. […]
U2OS cells were incubated with 10 µM compound 49, 50 or DMSO (DMSO 0.5%) for 24 h followed by lysis for western blotting analysis. p53 ex pression was monitored using fluorescent antibody. Signal ration between p53 and loading control (alpha tubulin) was measured. […]

For another test, the system named is U2OS cells. Kind of test: Morphological cell painting assay. The test is classed as cell-based. The conditions noted are these: U2OS cells, 20 h, 579 parameters, fraction of significantly changed parameters vs DMSO; 10, 3 or 1 µM. An excerpt:
Encouraged by the promising results from the pulldown experiment, and in order to get insight into bioactivity and possible mode of action, we analyzed peptide 33 in a morphological cell painting assay. The cell painting assay is a target agnostic assay which determines a cells morphological profile after treatment with a compound of interest and compares it to the profiles of a set of reference compounds. ^[22] By identifying reference compounds with a similar profile a hypothesis of the compounds mode of action can be generated based on their annotated targets. ^[23] U2OS cells were treated with our compound and 579 parameters were analyzed. […] We therefore synthesized a variant modified with an N‐terminal TAT sequence to enhance its permeability (compound 49, see Table 1 and Supplemental Figure 4). ^[24] […] Applying compound 49 to the cell painting assay led to an induction of 5.9 % and the corresponding profile was compared to the set of 3000 reference compounds. […] To validate this hypothesis, we exposed U2OS cells to compound 49 and evaluated the levels of p53 by Western blot. […] The exact mechanism by which the compounds elevate levels of p53 requires further investigation. However, it has previously been shown that the NuRD complex, of which RbAp48 is a core component, is able to deacetylate p53 and thereby modulate its stability. ^[26] The effect is mediated by the MTA family of proteins from which the compounds described here are derived. […]
The described assay follows closely the method described by Bray et al. Initially, 5 µl U2OS medium were added to each well of a 384 -well plate (PerkinElmer CellCarrier -384 Ultra). Subsequently, U2OS cell were seeded with a density of 1600 cells per well in 20 µl medium. The plate was incubated for 10 min at the ambient temperatu re, followed by an a dditional 4 h incubation (37 °C, 5 % CO2). Compound treatment was performed with the Echo 520 acoustic dispenser (Labcyte) at final concentrations of 10 µM, 3 µM or 1 µM. Incubation with compound was performed for 20 h (37 °C, 5 % CO2). Subsequently, mitoc hondria were stained with Mito Tracker Deep Red (Thermo Fisher Scientific, Cat. No. M22426). The Mito Tracker Deep Red stock solution (1 mM) was diluted to a final concentration of 100 nM in prewarmed medium. The medium was removed fr om the plate leaving 1 0 µl residual volume and 25 µl of the Mito Tracker solution were added to each well. 22 The plate was incubated for 30 min in darkness (37 °C, 5 % CO2). To fix the cells 7 µl of 18.5 % formaldehyde in PBS were added, resulting in a fi nal formaldehyde conce ntration of 3.7 %. Subsequently, the plate was incubated for another 20 min in darkness (RT) and washed three times with 70 µl of PBS. (Biotek Washer Elx405). Cells were permeabilized by addition of 25 µl 0.1 % Triton X -100 to each well, followed by 15 min incubation (RT) in darkness. The cells were washed three times with PBS leaving a final volume of 10 µl. To each well 25 µl of a staining solution were added, which contains 1 % BSA, 5 µl/mL Phalloidin (Thermo Fisher Scientific, A123 81), 25 µg/ml Concanav alin A (Thermo Fisher Scientific, Cat. […]
conjugate (Thermo Fisher Scientific, Cat. No. W11262) and […] SYTO 14 solution (Thermo Fisher Scientific, Cat. No. S7576). The plate is incubated for 30 min (RT) in darkness and washed three times with 70 µl PBS. After the final washing step the PBS was not aspirated. The plates were sealed and centrifuged for 1 min at 500 rpm.
The plates were prepare d in triplicates with shifted layouts to reduce plate effects and imaged using a Micro XL High-Content Screening System (Molecular Devices) in 5 channels (DAPI: Ex350 -400/ Em410- […]
The generated images were processed with the CellProfiler package (https://cellprofiler.org/, version 3.0.0) on a computing cluster of the Max Planck Society to extract 1716 cell features (parameters) per microscope site. The data was then further aggregated as medians per well (9 sites -> 1 well), then […]

The mark [3] stands for this setting: Table 1, competitive FP, tracer peptide 1 1 nM, RbAp48 15 nM, 20 mM Tris-HCl, 150 mM NaCl, 0.01% Tween-20, pH 7.5, 30 min room temperature, lower limit set by 15 nM protein, read-out: IC50.

Like-named read-outs stand apart in the source and are kept apart here. Starred links: 1 amine or outer side, 2 acyl side, 3 side chain; linkers in the order of their positions; H or OH if unused. Positions of bridges follow the written chain, without caps; N, C: chain ends. Residues, ends and D or L forms follow the SMILES beside them. *: point of attachment. TBMB = c1c(C[*:1])cc(C[*:3])cc1C[*:2]; X1 = [N-]=[N+]=NCCOCCOCCOCC(=O)*

Consider `C[C@H](NC(=O)[C@@H]1CSCc2cc3cc(c2)CSC[C@H](NC(=O)[C@H](CCCNC(=N)N)NC(=O)[C@H](CCCCN)NC(=O)[C@H]([C@@H](C)O)NC(=O)[C@@H](NC(=O)COCCOCCOCCN=[N+]=[N-])CSC3)C(=O)N[C@@H](C)C(=O)N[C@@H](CCCNC(=N)N)C(=O)N[C@@H](CCCNC(=N)N)C(=O)N2CCC[C@H]2C(=O)N[C@@H](Cc2ccc(O)cc2)C(=O)N[C@@H](CCCCN)C(=O)N2CCC[C@H]2C(=O)N1)C(N)=O` [Peptide 47] (X1-CTKRCARRPYKPCA-NH2; linker 1-5-13 via TBMB; N-terminus assumed), for which, at RbAp48 [1], the “enrichment of RbAp48 in pull-down” value is on record as “successfully able to enrich RbAp48”. For the same compound, at RbAp48 [2] (setting [3]), the IC50 came to 0.0139 ± 0.0056 µM.

On to `N=C(N)NCCC[C@H](NC(=O)CN)C(=O)N[C@@H](CCCCN)C(=O)N[C@@H](CCCCN)C(=O)N[C@@H](CCCNC(=N)N)C(=O)N[C@@H](CCCNC(=N)N)C(=O)N[C@@H](CCC(N)=O)C(=O)N[C@@H](CCCNC(=N)N)C(=O)N[C@@H](CCCNC(=N)N)C(=O)N[C@@H](CCCNC(=N)N)C(=O)N1CCC[C@H]1C(=O)N[C@@H](CCC(N)=O)C(N)=O` [Peptide 50, reference compound], for which, in the test on p53, the “levels of p53” value was “no increase”. For the same compound, at RbAp48 [2] (setting [3]), the IC50 was 1.24 ± 0.358 µM. Besides, the “FP activity in words” value on RbAp48 [2] (competitive FP assay) is on record as “weakly inhibit the interaction”.

Consider `C[C@H](NC(=O)[C@@H]1CSCc2cc3cc(c2)CSC[C@H](NC(=O)[C@H](CCCNC(=N)N)NC(=O)[C@H](CCCCN)NC(=O)[C@H]([C@@H](C)O)NC(=O)[C@@H](NC(=O)CNC(=O)[C@H](CCC(N)=O)NC(=O)[C@@H]2CCCN2C(=O)[C@H](CCCNC(=N)N)NC(=O)[C@H](CCCNC(=N)N)NC(=O)[C@H](CCCNC(=N)N)NC(=O)[C@H](CCC(N)=O)NC(=O)[C@H](CCCNC(=N)N)NC(=O)[C@H](CCCNC(=N)N)NC(=O)[C@H](CCCCN)NC(=O)[C@H](CCCCN)NC(=O)[C@H](CCCNC(=N)N)NC(=O)CN)CSC3)C(=O)N[C@@H](C)C(=O)N[C@@H](CCCNC(=N)N)C(=O)N[C@@H](CCCNC(=N)N)C(=O)N2CCC[C@H]2C(=O)N[C@@H](Cc2ccc(O)cc2)C(=O)N[C@@H](CCCCN)C(=O)N2CCC[C@H]2C(=O)N1)C(N)=O` [Peptide 49] (H-GRKKRRQRRRPQGCTKRCARRPYKPCA-NH2; linker 14-18-26 via TBMB), for which, in the test with U2OS cells, the induction is on record as 5.9%. The “levels of p53” value in the test on p53 is “increased”. The IC50 at RbAp48 [2] (setting [3]) turned out to be 0.0044 ± 0.0014 µM. The “FP activity in words” value on RbAp48 [2] (competitive FP assay) is reported as “slightly more active than its parent compound 33”.

On to `C[C@@H]1NC(=O)[C@H](CCCNC(=N)N)NC(=O)[C@@H]2CCCN2C(=O)[C@@H](NC(=O)COCCOCCOCCN=[N+]=[N-])CSCc2cc3cc(c2)CSC[C@@H](C(=O)N[C@@H](CCCCN)C(N)=O)NC(=O)[C@H](CCCNC(=N)N)NC(=O)[C@@H]2CCCN2C(=O)[C@H](C)NC(=O)[C@H]([C@@H](C)O)NC(=O)[C@H](CCCCN)NC(=O)[C@H](Cc2ccc(O)cc2)NC(=O)[C@H](CCCNC(=N)N)NC(=O)[C@H](CSC3)NC1=O` [Peptide 48] (X1-CPRACRYKTAPRCK-NH2; linker 1-5-13 via TBMB; N-terminus assumed), for which the “enrichment of RbAp48 in pull-down” value on RbAp48 [1] is given as “no interaction”. The IC50 on RbAp48 [2] (setting [3]) is above 10 µM; at RbAp48 [2] (competitive FP assay, read-out: IC50 / affinity), above 10 µM.
